Entries after “also recorded” stand apart in the source; their conditions may differ.
Test system: adults suffering from diabetes type 2
Assay: Four-week substitution trial in adults with diabetes type 2 controlled by metformin alone

SMILES: CN(C)C(=N)N=C(N)N [metformin, Metformin]
- fasting plasma glucose (FPG) control (before the trial, on regular metformin 500 mg twice daily to 850 mg three times daily, five adults): below 8 mmol/l
- side-effects of taking metformin (regular metformin, metallic taste three of five, abdominal discomfort all five): metallic taste in the mouth occasionally; also recorded: occasional abdominal discomfort
